From patent US20130178413A1, “HCV NS3 PROTEASE INHIBITORS” (priority 2010, published 2013)
Where two headings read alike, the source gives them in different places.

Key:
NS3/4A protease gt 1b = NS3/4A protease gt 1b (Hepatitis C virus genotype 1b, UniProt P26663); test: HCV NS3 protease time-resolved fluorescence (TRF) assay, NS3/4A inhibitory activity (Ki), gt 1b; type: biochemical; conditions: genotype 1b NS3/4A; read-out: Enzyme Activity gt 1b Ki
Method: (§1) The HCV NS3 protease inhibitory activity of the present compounds may be tested using assays known in the art. One such assay is HCV NS3 protease time-resolved fluorescence (TRF) assay as described below and in International Patent Application Publication WO2006/102087. Other examples of such assays are described in e.g., International Patent Application Publication WO2005/046712. HCV NS3 protease inhibitors, such as those described herein have a Ki less than 50 μM, such as less than 10 μM, and less than 100 nM. Ki is determined by an NS3 protease assay. The assay is performed in a final volume of 100 μl in assay buffer containing 50 mM HEPES, pH 7.5, 150 mM NaCl, 15% glycerol, 0.15% TRITON X-100, 10 mM DTT, and 0.1% PEG 8000. NS3 protease is pre-incubated with various concentrations of inhibitors in DMSO for 30 minutes. The reaction is initiated by adding the TRF peptide substrate (final concentration 100 nM). NS3 mediated hydrolysis of the substrate is quenched after 1 hour at room temperature with 100 μl of 500 mM MES, pH 5.5. Product fluorescence is detected using either a VICTOR V2 or FUSION fluorophotometer (Perkin Elmer Life and Analytical Sciences) with excitation at 340 nm and emission at 615 nm with a 400 μs delay. Testing concentrations of different enzyme forms are selected to result in a signal to background ratio (S/B) of 10-30. IC50 values are derived using a standard four-parameter fit to the data. Ki values are derived from IC50 values using the following formula,
(§2) IC50=Ki(1+[S]/KM), Eqn (1),
(§3) where [S] is the concentration of substrate peptide in the reaction and KM is the Michaelis constant. See P. Gallinari et al., 38 BIOCHEM. 5620-32 (1999); P. Gallinari et al., 72 J. VIROL. 6758-69 (1998); M. Taliani et al., 240 ANAL. BIOCHEM. 60-67 (1996).
(§4) One such assay is HCV NS3 protease time-resolved fluorescence (TRF) assay as described below and in Mao et al., Anal Biochem. 373:1-8, 2008 and International Patent Application Publication WO 2006/102087. A NS3 protease assay can be performed, for example, in a final volume of 100 μl assay buffer containing 50 mM HEPES, pH 7.5, 150 mM NaCl, 15% glycerol, 0.15% TRITON X-100, 10 mM DTT, and 0.1% PEG 8000. NS3 and NS4A protease is pre-incubated with various concentrations of inhibitors in DMSO for 30 minutes. The reaction is initiated by adding the TRF peptide substrate (final concentration 100 nM). NS3 mediated hydrolysis of the substrate is quenched after 1 hour at room temperature with 100 μl of 500 mM MES, pH 5.5. Product fluorescence is detected using either a VICTOR V2 or FUSION fluorophotometer (Perkin Elmer Life and Analytical Sciences) with excitation at 340 nm and emission at 615 nm with a 400 μs delay. Testing concentrations of different enzyme forms are selected to result in a signal to background ratio (S/B) of 10-30. IC50 values are derived using a standard four-parameter fit to the data. Ki values are derived from IC50 values using the following formula,
as §3, with “(1996); Mao et al., Analytical Biochemistry 373: 1-8, 2008. Measuring Compound Inhibitory Potency (Replicon EC50 (nM))” for “(1996).”

[1] = biological target: NS3/4A protease gt 1b A156V (Hepatitis C virus genotype 1b, UniProt P26663, A1182V); test: HCV NS3 protease time-resolved fluorescence (TRF) assay, NS3/4A inhibitory activity (Ki), gt 1b A156V mutant; type: biochemical, hepatitis C virus (HCV)
Method: as §1, §2, §3, §4
as §3, with “(1996); Mao et al., Analytical Biochemistry 373: 1-8, 2008. Measuring Compound Inhibitory Potency (Replicon EC50 (nM))” for “(1996).”

NS3/4A protease gt 3a = NS3/4A protease gt 3a (Hepatitis C virus genotype 3a, UniProt Q81258); test: HCV NS3 protease time-resolved fluorescence (TRF) assay, NS3/4A inhibitory activity (Ki), gt 3a; type: biochemical; conditions: genotype 3a NS3/4A; read-out: Enzyme Activity gt 3a Ki
Method: as §1, §2, §3, §4
as §3, with “(1996); Mao et al., Analytical Biochemistry 373: 1-8, 2008. Measuring Compound Inhibitory Potency (Replicon EC50 (nM))” for “(1996).”

gt 1b Replicon = test: HCV replicon assay, compound inhibitory potency (Replicon EC50); type: cell-based; conditions: Hepatitis C virus, GT1B
Method: Measurement of inhibition by compounds was performed using the HCV replicon system. Several different replicons encoding different HCV genotypes or mutations were used. In addition, potency measurements were made using different formats of the replicon assay, including different ways of measurements and different plating formats. See Jan M. Vrolijk et al., A replicons-based bioassay for the measurement of interferons in patients with chronic hepatitis C, 110 J. VIROLOGICAL METHODS 201 (2003); Steven S. Carroll et al., Inhibition of Hepatitis C Virus RNA Replication by 2′-Modified Nucleoside Analogs, 278(14) J. BIOLOGICAL CHEMISTRY 11979 (2003). However, the underlying principles are common to all of these determinations, and are outlined below.
Stable neomycin phosphotransferase encoding replicon-harboring cell lines were used, so all cell lines were maintained under G418 selection prior to the assay. In some cases the cell lines encoded a luciferase:Neor fusion and could be assayed either directly by determination of RNA copy number, or indirectly through measurement of the luciferase activity.
To initiate an assay, replicon cells were plated in the presence of a dilution series of test compound in the absence of G418. Typically, the assays were performed in a 96-well plate format for manual operation, or a 384 well plate in an automated assay. Replicon cells and compound were incubated for 24-48 hours, depending on the assay. At the end of the assay, cells are washed free of media and compound and then lysed. For direct quantitation, RNA levels were measured by ^32P-probe hybridization and protection, or in a TAQMAN based assay and normalized to cellular cyclophilin A RNA levels. In some cases, luciferase activity was measured using a conventional luciferase assay. In all cases EC50 determinations were calculated as a percent of a DMSO control by fitting the data to a four parameter fit function.

| SMILES | Ki (NS3/4A protease gt 1b) [nM] | Ki [1] [nM] | Ki (NS3/4A protease gt 3a) [nM] | EC50 (gt 1b Replicon; 10% Fetal Bovine Serum, read-out: gt 1b Replicon EC50 10% FBS) [nM] | EC50 (gt 1b Replicon; 50% Normal Human Serum, read-out: gt 1b Replicon EC50 50% NHS) [nM] |
| --- | --- | --- | --- | --- | --- |
| C=C[C@@H]1C[C@]1(NC(=O)[C@@H]1C[C@@H]2CN1C(=O)[C@H](C1CCCC1)NC(=O)O[C@@]1(C)C[C@@H]1CC/C=C/Cn1c(nc3cc(C)ccc3c1=O)O2)C(=O)NS(=O)(=O)C1CC1 [Example I-22, (1aS,5S,8S,10R,20E,23aS)-5-cyclopentyl-N-{(1R,2S)-1-[(cyclopropylsulfonyl)carbamoyl]-2-ethenylcyclopropyl}-1a,14-dimethyl-3,6,17-trioxo-1,1a,3,4,5,6,9,10,19,22,23,23a-dodecahydro-8H,17H-7,10-methano cyclopropa[18,19] [1,10,3,6,12]dioxatriaza cyclononadecino[11,12-b]quinazoline-8-carboxamide] | 0.3 | 135 | 82.2 |  |  |
| C=C[C@@H]1C[C@]1(NC(=O)[C@@H]1C[C@@H]2CN1C(=O)[C@H](C(C)(C)C)NC(=O)O[C@]1(C)C[C@H]1CC/C=C/c1cccc3c1CN(C3)C(=O)O2)C(=O)NS(=O)(=O)C1CC1 [Example I-15, (1aR,5S,8S,10R,19E,22aR)-5-tert-butyl-N-{(1R,2S)-1-[(cyclopropylsulfonyl)carbamoyl]-2-ethenylcyclopropyl}-1a-methyl-3,6,12-trioxo-1,1a,3,4,5,6,9, 10,14,21,22,22a-dodecahydro-8H-7,10: 13,15-dimethanocyclo propa[n][4,13,2,8,11] benzodioxatriazacyclo henicosine-8(12H)-carboxamide] | 0.09 | 8.9 | 93.5 |  |  |
| C=C[C@@H]1C[C@]1(NC(=O)[C@@H]1C[C@@H]2CN1C(=O)[C@H](C(C)(C)C)NC(=O)O[C@@]1(C)C[C@@H]1CC/C=C/c1cccc3c1CN(C3)C(=O)O2)C(=O)NS(=O)(=O)C1CC1 [Example I-14, (1aS,5S,8S,10R,19E,22aS)-5-tert-butyl-N-{(1R,2S)-1-[(cyclopropylsulfonyl)carbamoyl]-2-ethenylcyclopropyl}-1a-methyl-3,6,12-trioxo-1,1a,3,4,5,6,9, 10,14,21,22,22a-dodecahydro-8H-7,10:13,15-dimethano cyclopropa[n][4,13,2,8, 11]benzodioxatriaza cyclohenicosine-8(12H)-carboxamide] | 0.08 | 6.3 | 112 |  |  |
| C=C[C@@H]1C[C@]1(NC(=O)[C@@H]1C[C@@H]2CN1C(=O)[C@H](C1CCCC1)NC(=O)O[C@]1(C)CCC[C@H]1CC/C=C/Cc1c(nc3ccccc3c1OCc1ccccc1)O2)C(=O)NS(=O)(=O)C1CC1 [Example I-17, (3aR,7S,10S,12R,21E, 24aS)-19-(benzyloxy)-7-cyclopentyl-N-{(1R,2S)-1-[(cyclopropylsulfonyl)carbamoyl]-2-ethenylcyclopropyl}-3a-methyl-5,8-dioxo-1,2,3,3a,5,6,7,8,11,12, 20,23,24,24a-tetradeca hydro-10H-9,12-methanocyclopenta[18, 19][1,10,3,6]dioxadiaza cyclononadecino[11,12-b]quinoline-10-carboxamide] | 0.07 | 9.6 | 27.9 |  |  |
| C=C[C@@H]1C[C@]1(NC(=O)[C@@H]1C[C@@H]2CN1C(=O)[C@H](C(C)(C)C)NC(=O)O[C@]1(C)C[C@H]1CCCCc1cccc3c1CN(C3)C(=O)O2)C(=O)NS(=O)(=O)C1CC1 [Example I-20, (1aR,5S,8S,10R,22aR)-5-tert-butyl-N-{(1R,2S)-1-[(cyclopropylsulfonyl)carbamoyl]-2-ethenylcyclopropyl}-1a-methyl-3,6,12-trioxo-1,1a,3,4,5,6,9, 10,14,19,20,21,22,22a-tetradecahydro-8H-7,10:13,15-dimethano cyclopropa[n][4,13,2,8, 11]benzodioxatriaza cyclohenicosine-8(12H)-carboxamide] | 0.02 | 27.2 | 58.3 |  |  |
| CC[C@@H]1C[C@]1(NC(=O)[C@@H]1C[C@@H]2CN1C(=O)[C@H](C(C)(C)C)NC(=O)O[C@]1(C)C[C@H]1CCCCCc1nc3ccc(OC)cc3cc1O2)C(=O)NS(=O)(=O)C1CC1 [Example I-11] | 0.03 |  | 0.5 | 4 | 7 |
| C=C[C@@H]1C[C@]1(NC(=O)[C@@H]1C[C@@H]2CN1C(=O)[C@H](C(C)(C)C)NC(=O)O[C@@]1(C)C[C@@H]1CCCCc1cccc3c1CN(C3)C(=O)O2)C(=O)NS(=O)(=O)C1CC1 [Example I-21, (1aS,5S,8S,10R,22aS)-5-tert-butyl-N-{(1R,2S)-1-[(cyclopropylsulfonyl)carbamoyl]-2-ethenylcyclopropyl}-1a-methyl-3,6,12-trioxo-1,1a,3,4,5,6,9,10,14,19,20,21,22,22a-tetradecahydro-8H-7,10:13,15-dimethano cyclopropa[n][4,13,2,8, 11]benzodioxatriaza cyclohenicosine-8(12H)-carboxamide] | 1.4 | 8.1 | 300 |  |  |
| C=C[C@@H]1C[C@]1(NC(=O)[C@@H]1C[C@@H]2CN1C(=O)[C@H](C(C)(C)C)NC(=O)O[C@@]1(C)C[C@@H]1CCCCCc1nc3ccccc3nc1O2)C(=O)NS(=O)(=O)C1CC1 [Example I-9, (1aS,5S,8S,10R,22aS)-5-tert-butyl-N-{(1R,2S)-1-[(cyclopropylsulfonyl)carbamoyl]-2-ethenylcyclopropyl}-1a-methyl-3,6-dioxo-1,1a,3,4,5,6,9,10,18,19, 20,21,22,22a-tetra decahydro-8H-7,10-methanocyclopropa[18, 19][1,10,3,6]dioxadiaza cyclononadecino[11,12-b]quinoxaline-8-carboxamide] | 0.06 |  | 12.5 |  |  |
